From ChEMBL document CHEMBL2169870, “A novel aminopeptidase N inhibitor developed by virtual screening approach” (Bioorg Med Chem Lett, 2012)
The source made the active and inactive calls. The rule behind the calls is not given here.

What was measured:
Aminopeptidase N = target: T1, Aminopeptidase N (Sus scrofa, UniProt P15145); test: Inhibition of porcine kidney microsome aminopeptidase using L-Leu-p-nitroanilide as substrate after 30 mins
T1 sequence (P15145 whole entry): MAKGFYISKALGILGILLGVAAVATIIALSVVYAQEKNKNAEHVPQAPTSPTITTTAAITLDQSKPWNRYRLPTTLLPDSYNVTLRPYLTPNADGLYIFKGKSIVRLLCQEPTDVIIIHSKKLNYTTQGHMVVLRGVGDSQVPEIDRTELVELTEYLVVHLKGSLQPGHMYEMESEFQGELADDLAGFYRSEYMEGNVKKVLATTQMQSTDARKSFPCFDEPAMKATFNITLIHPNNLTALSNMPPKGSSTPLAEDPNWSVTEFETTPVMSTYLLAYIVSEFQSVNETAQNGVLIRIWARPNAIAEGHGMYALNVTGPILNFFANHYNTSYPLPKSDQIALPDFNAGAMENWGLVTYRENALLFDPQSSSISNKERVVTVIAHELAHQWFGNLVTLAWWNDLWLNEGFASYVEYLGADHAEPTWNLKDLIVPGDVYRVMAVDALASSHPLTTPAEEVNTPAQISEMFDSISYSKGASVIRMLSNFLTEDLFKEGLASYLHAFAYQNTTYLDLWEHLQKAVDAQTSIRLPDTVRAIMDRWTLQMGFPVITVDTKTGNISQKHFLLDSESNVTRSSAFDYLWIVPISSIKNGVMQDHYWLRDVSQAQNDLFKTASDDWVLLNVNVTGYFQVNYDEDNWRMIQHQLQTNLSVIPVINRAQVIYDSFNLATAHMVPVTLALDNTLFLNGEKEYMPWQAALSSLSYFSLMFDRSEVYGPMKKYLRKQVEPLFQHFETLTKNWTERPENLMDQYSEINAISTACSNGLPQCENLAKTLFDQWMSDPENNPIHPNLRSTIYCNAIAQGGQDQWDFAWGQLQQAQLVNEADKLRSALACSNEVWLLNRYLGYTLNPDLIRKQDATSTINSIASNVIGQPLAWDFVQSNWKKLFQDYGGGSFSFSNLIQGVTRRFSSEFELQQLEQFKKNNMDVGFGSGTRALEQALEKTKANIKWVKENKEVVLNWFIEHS

MDA-MB-231 [1] = test: Antimetastatic activity in human MDA-MB-231 cells assessed as inhibition of cell invasion at 300 uM after 20 hrs by matrigel assay; type: functional, cell-based
MDA-MB-231 [2] = test: Induction of apoptosis in human MDA-MB-231 cells assessed as early apoptotic cells at 300 uM after 24 hrs using annexin-V-FITC staining by flow cytometry (reference value: 1.69%); type: functional
MDA-MB-231 [3] = test: Induction of apoptosis in human MDA-MB-231 cells assessed as late apoptotic cells at 300 uM after 24 hrs using annexin-V-FITC staining by flow cytometry (reference value: 1.69%); type: functional
MDA-MB-231 [4] = test: Cell cycle arrest in human MDA-MB-231 cells assessed as accumulation at G2 phase at 300 uM after 48 hrs using propidium iodide staining by flow cytometry (reference value: 18.35%); type: functional
MDA-MB-231 [5] = test: Cell cycle arrest in human MDA-MB-231 cells assessed as accumulation at S phase at 300 uM after 48 hrs using propidium iodide staining by flow cytometry (reference value: 33.25%); type: functional
MDA-MB-231 [6] = test: Cell cycle arrest in human MDA-MB-231 cells assessed as accumulation at G1 phase at 300 uM after 48 hrs using propidium iodide staining by flow cytometry (reference value: 48.40%); type: functional
A549 = test: Cytotoxicity against human A549 cells after 48 hrs by MTT assay; conditions: A549, 48 h
NIH3T3 = test: Cytotoxicity against mouse NIH/3T3 cells after 48 hrs by MTT assay; type: cell-based
PC-3 = test: Cytotoxicity against human PC3 cells after 48 hrs by MTT assay; conditions: PC-3, 48 h
SK-OV-3 [7] = test: Cytotoxicity against human SKOV3 cells after 48 hrs by MTT assay; conditions: SK-OV-3, 48 h
K562 = test: Cytotoxicity against human K562 cells after 48 hrs by MTT assay; conditions: K562, 48 h
NB-4 [8] = test: Cytotoxicity against human NB4 cells after 48 hrs by MTT assay; conditions: NB-4, 48 h
HL-60 [9] = test: Cytotoxicity against human HL60 cells after 48 hrs by MTT assay; conditions: HL-60, 48 h
HeLa [10] = test: Cytotoxicity against human HeLa cells after 48 hrs by MTT assay
[11] = Cytotoxicity against human ES2 cells after 48 hrs by MTT assay; conditions: ES-2, 48 h
HCT-116 = test: Cytotoxicity against human HCT116 cells after 48 hrs by MTT assay; conditions: HCT-116, 48 h
MCF7 [12] = test: Cytotoxicity against human MCF7 cells after 48 hrs by MTT assay; conditions: MCF7, 48 h
MDA-MB-231 [13] = test: Cytotoxicity against human MDA-MB-231 cells after 48 hrs by MTT assay; conditions: MDA-MB-231, 48 h
MDA-MB-231 [14] = test: Antimetastatic activity in human MDA-MB-231 cells assessed as inhibition of cell invasion at 20 uM after 20 hrs by matrigel assay; type: functional, cell-based
MDA-MB-231 [15] = test: Induction of apoptosis in human MDA-MB-231 cells assessed as early apoptotic cells at 20 uM after 24 hrs using annexin-V-FITC staining by flow cytometry (reference value: 1.69%); type: functional
MDA-MB-231 [16] = test: Induction of apoptosis in human MDA-MB-231 cells assessed as late apoptotic cells at 20 uM after 24 hrs using annexin-V-FITC staining by flow cytometry (reference value: 1.69%); type: functional
MDA-MB-231 [17] = test: Cell cycle arrest in human MDA-MB-231 cells assessed as accumulation at G2 phase at 20 uM after 48 hrs using propidium iodide staining by flow cytometry (reference value: 18.35%); type: functional
MDA-MB-231 [18] = test: Cell cycle arrest in human MDA-MB-231 cells assessed as accumulation at S phase at 20 uM after 48 hrs using propidium iodide staining by flow cytometry (reference value: 33.25%); type: functional
MDA-MB-231 [19] = test: Cell cycle arrest in human MDA-MB-231 cells assessed as accumulation at G1 phase at 20 uM after 48 hrs using propidium iodide staining by flow cytometry (reference value: 48.40%); type: functional
NB-4 [20] = test: Cytotoxicity against human NB4 cells after 48 hrs by MTT assay
ES2 = test: Cytotoxicity against human ES2 cells after 48 hrs by MTT assay
HL-60 [21] = test: Cytotoxicity against human HL60 cells after 48 hrs by MTT assay
HeLa [22] = test: Cytotoxicity against human HeLa cells after 48 hrs by MTT assay
MCF7 [23] = test: Cytotoxicity against human MCF7 cells after 48 hrs by MTT assay
SK-OV-3 [24] = test: Cytotoxicity against human SKOV3 cells after 48 hrs by MTT assay

Nn1c(COc2ccccc2)n[nH]c1=S
IC50 (Aminopeptidase N): 424 µM

C=CCN/C(S)=N/C=C1C(=O)NC(=O)NC1=O
IC50 (Aminopeptidase N): 65.9 µM

CC(C)C[C@H](NC(=O)[C@@H](O)[C@H](N)Cc1ccccc1)C(=O)O [UBENIMEX]
Activity (MDA-MB-231 [1]): Active | Activity (MDA-MB-231 [2]): 8.54% | Activity (MDA-MB-231 [3]): 2.14% | Activity (MDA-MB-231 [4]): 7.03% | Activity (MDA-MB-231 [5]): 15.06% | Activity (MDA-MB-231 [6]): 77.91% | IC50 (A549): 513 µM | IC50 (NIH3T3; Mus musculus, NIH3T3, 48 h): > 1000 µM | IC50 (PC-3): 399 µM | IC50 (SK-OV-3 [7]): > 1000 µM | IC50 (K562): 136 µM | IC50 (NB-4 [8]): 221 µM | IC50 (HL-60 [9]): 86.4 µM | IC50 (HeLa [10]): 155 µM | IC50 [11]: 74.5 µM | IC50 (HCT-116): > 1000 µM | IC50 (MCF7 [12]): > 1000 µM | IC50 (MDA-MB-231 [13]): 50.6 µM

O=C(CN1C(=O)C2(OCCO2)c2cc(Br)ccc21)NO
Activity (MDA-MB-231 [14]): Active | Activity (MDA-MB-231 [15]): 4.99% | Activity (MDA-MB-231 [16]): 5.35% | Activity (MDA-MB-231 [17]): 3.83% | Activity (MDA-MB-231 [18]): 2.9% | Activity (MDA-MB-231 [19]): 93.27% | Activity (NIH3T3; mouse, nih3t3, 48 h): Dose-dependent effect | Activity (NB-4 [20]): Dose-dependent effect | Activity (ES2): Dose-dependent effect | Activity (HL-60 [21]): Dose-dependent effect | Activity (HeLa [22]): Dose-dependent effect | Activity (MCF7 [23]): Dose-dependent effect | Activity (SK-OV-3 [24]): Dose-dependent effect

NC(=S)NNC(=O)c1ccccc1C(=O)O
IC50 (Aminopeptidase N): > 1000 µM

O=C1NC(=O)C(=NNc2cccc(C(=O)O)c2)C(=O)N1
IC50 (Aminopeptidase N): > 1000 µM

O=C1NC(=O)C(=NNc2cc([N+](=O)[O-])ccc2O)C(=O)N1
IC50 (Aminopeptidase N): > 1000 µM

Nc1nc2c(ncn2S(=O)(=O)c2cccc(C(=O)O)c2)c(=O)[nH]1
IC50 (Aminopeptidase N): 202 µM

CCOC(=O)/C(N)=N/NS(=O)(=O)c1ccc(C)cc1
IC50 (Aminopeptidase N): 321 µM

O=C1Nc2ccccc2/C1=C1/SC(=S)N(NC(=O)c2cccc(O)c2)C1=O
IC50 (Aminopeptidase N): 170 µM

CC(=O)NC(=S)NNC(=O)COc1ccc(Br)cc1
IC50 (Aminopeptidase N): 227 µM

CC[C@H](N)[C@H](O)c1ccc(OC)cc1
IC50 (Aminopeptidase N): > 1000 µM

NS(=O)(=O)c1ccc(-n2cccc2/C=C2/C(=O)NN(c3ccc(Cl)cc3)C2=O)cc1
IC50 (Aminopeptidase N): > 1000 µM

O=C(O)COc1ccc(/C=N/n2c(COc3ccccc3)nc3ccccc3c2=O)cc1
IC50 (Aminopeptidase N): 188 µM

NC(=O)c1ccccc1NC(=O)c1ccccc1C(=O)O
IC50 (Aminopeptidase N): 66.3 µM

Cc1cc(/C=N/Nc2ccc([N+](=O)[O-])cc2[N+](=O)[O-])c(C)n1-c1ccc(S(N)(=O)=O)cc1
IC50 (Aminopeptidase N): > 1000 µM

COc1cc(/C=C2/C(=O)NC(=O)N(Cc3ccc(F)cc3)C2=O)cc(OC)c1O
IC50 (Aminopeptidase N): 78.9 µM

Cc1[nH]cnc1/C=N/NC(N)=S
IC50 (Aminopeptidase N): > 1000 µM

NNC(=O)/C(=C/c1ccc([N+](=O)[O-])cc1)NC(=O)c1ccc(Br)cc1
IC50 (Aminopeptidase N): 438 µM
